Measured values taken from patent US7468394B1, “Sterile pharmaceutical composition and process for a solution of propofol emulsion having microbial growth retardation” (priority 2003, dated 2008).

Source text: Propofol has limited water solubility, however it is easy to dissolve in soybean oil. As such, it must be incorporated with a solubilizing agent, surfactants or solvents to generate oil-in-water emulsions. The oil component of the emulsion is contained within a shell of the surfactants (egg lecithin), thus forming a “sunflower” structure, which can be seen in Table 1. Currently marketed propofol products are available as oil-in-water emulsions.

CC(C)c1cccc(C(C)C)c1O [propofol, 2,6-Diisopropylphenol]
partition coefficient of propofol between soybean oil and water: 4,220
